Reference: ChEMBL document CHEMBL1201862, “PubChem BioAssay data set” (2004)
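Assay format: 96-well plates, 48-hour exposure. The concentration for 50% growth inhibition is given as GI50.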 Calls of active or inactive are those of the source. Cut-off read from the data, not from the text of the source: active = GI50 up to about 1.1 µM and inactive = higher.

How the values were obtained:
Assay in all cases: growth of human tumour cells (NCI), 48 h
K562 = tested on: K562
T47D = tested on: T47D
SNB-75 = tested on: SNB-75
SF-268 = tested on: SF-268
BT-549 = tested on: BT-549
HT-29 = tested on: HT-29
IGROV-1 = tested on: IGROV-1
RXF 393 = tested on: RXF 393
SNB-19 = tested on: SNB-19
OVCAR-3 = tested on: OVCAR-3
UO-31 = tested on: UO-31
A498 = tested on: A498
NCI-H23 = tested on: NCI-H23
SK-MEL-2 = tested on: SK-MEL-2
SF-295 = tested on: SF-295
HCC 2998 = tested on: HCC 2998
Malme-3M = tested on: Malme-3M
KM12 = tested on: KM12
A549 = tested on: A549
MCF7 = tested on: MCF7

SMILES	GI50 (K562)	GI50 (T47D)	GI50 (SNB-75)	GI50 (SF-268)	GI50 (BT-549)	GI50 (HT-29)	GI50 (IGROV-1)	GI50 (RXF 393)	GI50 (SNB-19)	GI50 (OVCAR-3)	GI50 (UO-31)	GI50 (A498)	GI50 (NCI-H23)	GI50 (SK-MEL-2)	GI50 (SF-295)	GI50 (HCC 2998)	GI50 (Malme-3M)	GI50 (KM12)	GI50 (A549)	GI50 (MCF7)
O=C(NCCCCCN1CCC2(CCCCC2)CC1)C(C1CCCCC1)C1CCCCC1	1.52 µM (inactive)	2.51 µM (inactive)	4.12 µM (inactive)	5.35 µM (inactive)	5.87 µM (inactive)	1.97 µM (inactive)	4.24 µM (inactive)	4.24 µM (inactive)	5.73 µM (inactive)	4.17 µM (inactive)	3.61 µM (inactive)	4.26 µM (inactive)	3.1 µM (inactive)	2.21 µM (inactive)	1.88 µM (inactive)	1.3 µM (inactive)	1.75 µM (inactive)	6.11 µM (inactive)	5.94 µM (inactive)	2.13 µM (inactive)
CN(C)/C=N/S(=O)(=O)c1nn2c(C=O)c(-c3ccc(-c4ccc([N+](=O)[O-])cc4)o3)nc2s1	1.1 µM (active)	5.52 µM (inactive)	9.18 µM (inactive)	4.61 µM (inactive)	1.72 µM (inactive)	0.611 µM (active)	1.72 µM (inactive)	1.91 µM (inactive)	13.9 µM (inactive)	2.07 µM (inactive)	1.91 µM (inactive)	15.3 µM (inactive)	3.1 µM (inactive)	7.28 µM (inactive)	7.08 µM (inactive)	5.33 µM (inactive)	1.78 µM (inactive)	5.64 µM (inactive)	3.62 µM (inactive)	2.13 µM (inactive)
COc1ccc(C2OC(=O)c3ccc4ccccc4c32)c(C)c1 (stereo not given)	3.55 µM (inactive)	7.6 µM (inactive)	6.97 µM (inactive)	45.2 µM (inactive)	19.5 µM (inactive)	3.78 µM (inactive)	5.51 µM (inactive)	5.33 µM (inactive)	14.7 µM (inactive)	6.44 µM (inactive)	8.97 µM (inactive)	7.41 µM (inactive)	9.53 µM (inactive)	2.1 µM (inactive)	2.98 µM (inactive)	3.85 µM (inactive)	8.18 µM (inactive)	5.87 µM (inactive)	6.31 µM (inactive)	5.65 µM (inactive)
CC1(C)CC2=C(Sc3ccccc3N2)C(=O)C1C(=O)C(=O)Nc1cc(Cl)ccc1Cl (stereo not given)	> 100 µM (inactive)	82.8 µM (inactive)	38.2 µM (inactive)	> 100 µM (inactive)	> 100 µM (inactive)	77.6 µM (inactive)	> 100 µM (inactive)	> 100 µM (inactive)	> 100 µM (inactive)	> 100 µM (inactive)	> 100 µM (inactive)	> 100 µM (inactive)	> 100 µM (inactive)	> 100 µM (inactive)	> 100 µM (inactive)	> 100 µM (inactive)	> 100 µM (inactive)	> 100 µM (inactive)	> 100 µM (inactive)	> 100 µM (inactive)
CN1CCN(C)C12C=c1ccccc1=CC21CC1	22.8 µM (inactive)	45.1 µM (inactive)	45.6 µM (inactive)	29.7 µM (inactive)	41 µM (inactive)	17.2 µM (inactive)	68.7 µM (inactive)	55.5 µM (inactive)	> 83.8 µM (inactive)	62.1 µM (inactive)	40.9 µM (inactive)	> 100 µM (inactive)	> 100 µM (inactive)	24.3 µM (inactive)	> 77.6 µM (inactive)	16.3 µM (inactive)	28.5 µM (inactive)	29 µM (inactive)	> 91.4 µM (inactive)	35.4 µM (inactive)
